The text below walks through data of PubChem BioAssay AID1259407 (Chemical Carcinogenesis Research Information System (CCRIS), 2018).

Structures are written as SMILES. The source made the active and inactive calls. The rule behind the calls is not given here.

In the series the test system is CCRIS mutagenicity, Ames/micronucleus/aberration tests. Put plainly: CCRIS mutagenicity studies.
Where [1] appears, read: Test System: AMES SALMONELLA TYPHIMURIUM, Strain/Indicator: TA98, Metabolic Activation: NONE, Method: PREINCUBATION
[2] abbreviates: Test System: AMES SALMONELLA TYPHIMURIUM, Strain/Indicator: TA100, Metabolic Activation: NONE, Method: PREINCUBATION
Setting [3] is: Test System: AMES SALMONELLA TYPHIMURIUM, Strain/Indicator: TA1535, Metabolic Activation: NONE, Method: PREINCUBATION

For the compound `C/C=C(\C)CCl`, the mutagenic call is “active; positive” (Test System: AMES SALMONELLA TYPHIMURIUM, Strain/Indicator: TA100, Metabolic Activation: NONE, Method: LIQUID SUSPENSION) and “active; positive” (Test System: AMES SALMONELLA TYPHIMURIUM, Strain/Indicator: TA100, Metabolic Activation: RAT, LIVER, S-9, Method: LIQUID SUSPENSION).

Consider `COc1cccc(N)c1`, for which the mutagenic call was “active; positive” (End Point: IN VITRO CHROMOSOMAL ABERRATIONS, Test System: CHINESE HAMSTER OVARY CELLS, Metabolic Activation: NONE); “inactive; negative” (End Point: IN VITRO CHROMOSOMAL ABERRATIONS, Test System: CHINESE HAMSTER OVARY CELLS, Metabolic Activation: RAT, LIVER, S-9, AROCLOR 1254); “inactive; negative” (Test System: AMES SALMONELLA TYPHIMURIUM, Strain/Indicator: TA98, Metabolic Activation: HAMSTER, LIVER, S-9, AROCLOR 1254, Method: PREINCUBATION); “inactive; negative” under setting [1]; “inactive; negative” (Test System: AMES SALMONELLA TYPHIMURIUM, Strain/Indicator: TA98, Metabolic Activation: RAT, LIVER, S-9, AROCLOR 1254, Method: PREINCUBATION); “inactive; negative” (Test System: AMES SALMONELLA TYPHIMURIUM, Strain/Indicator: TA100, Metabolic Activation: HAMSTER, LIVER, S-9, AROCLOR 1254, Method: PREINCUBATION). Further, the mutagenic call was “inactive; negative” under setting [2]; “inactive; negative” (Test System: AMES SALMONELLA TYPHIMURIUM, Strain/Indicator: TA100, Metabolic Activation: RAT, LIVER, S-9, AROCLOR 1254, Method: PREINCUBATION); “inactive; negative” (Test System: AMES SALMONELLA TYPHIMURIUM, Strain/Indicator: TA102, Metabolic Activation: NONE, Method: STANDARD PLATE); “inactive; negative” (Test System: AMES SALMONELLA TYPHIMURIUM, Strain/Indicator: TA1535, Metabolic Activation: HAMSTER, LIVER, S-9, AROCLOR 1254, Method: PREINCUBATION); “inactive; negative” under setting [3]; “inactive; negative” (Test System: AMES SALMONELLA TYPHIMURIUM, Strain/Indicator: TA1535, Metabolic Activation: RAT, LIVER, S-9, AROCLOR 1254, Method: PREINCUBATION). Moreover, the mutagenic call is, setting by setting: (Test System: AMES SALMONELLA TYPHIMURIUM, Strain/Indicator: TA1537, Metabolic Activation: HAMSTER, LIVER, S-9, AROCLOR 1254, Method: PREINCUBATION) “inactive; negative”; (Test System: AMES SALMONELLA TYPHIMURIUM, Strain/Indicator: TA1537, Metabolic Activation: NONE, Method: PREINCUBATION) “inactive; negative”; (Test System: AMES SALMONELLA TYPHIMURIUM, Strain/Indicator: TA1537, Metabolic Activation: RAT, LIVER, S-9, AROCLOR 1254, Method: PREINCUBATION) “inactive; negative”; (Test System: AMES SALMONELLA TYPHIMURIUM, Strain/Indicator: TA2638, Metabolic Activation: NONE, Method: STANDARD PLATE) “inactive; negative”; (Test System: E. COLI, Strain/Indicator: WP2 (PKM101), Metabolic Activation: NONE, Method: STANDARD PLATE) “inactive; negative”; (Test System: E. COLI, Strain/Indicator: WP2 UVRA (PKM101), Metabolic Activation: NONE, Method: STANDARD PLATE) “inactive; negative”.

As for `Cc1ccc(C#N)cc1`, the mutagenic call reads like this: (Test System: AMES SALMONELLA TYPHIMURIUM, Strain/Indicator: TA97, Metabolic Activation: HAMSTER, LIVER, S-9, AROCLOR 1254 (10%), Method: PREINCUBATION) “inactive; negative”; (Test System: AMES SALMONELLA TYPHIMURIUM, Strain/Indicator: TA97, Metabolic Activation: HAMSTER, LIVER, S-9, AROCLOR 1254 (30%), Method: PREINCUBATION) “inactive; negative”; (Test System: AMES SALMONELLA TYPHIMURIUM, Strain/Indicator: TA97, Metabolic Activation: NONE, Method: PREINCUBATION) “inactive; negative”; (Test System: AMES SALMONELLA TYPHIMURIUM, Strain/Indicator: TA97, Metabolic Activation: RAT, LIVER, S-9, AROCLOR 1254 (10%), Method: PREINCUBATION) “inactive; negative”; (Test System: AMES SALMONELLA TYPHIMURIUM, Strain/Indicator: TA97, Metabolic Activation: RAT, LIVER, S-9, AROCLOR 1254 (30%), Method: PREINCUBATION) “inactive; negative”; (Test System: AMES SALMONELLA TYPHIMURIUM, Strain/Indicator: TA98, Metabolic Activation: HAMSTER, LIVER, S-9, AROCLOR 1254 (10%), Method: PREINCUBATION) “inactive; negative”. The mutagenic call (Test System: AMES SALMONELLA TYPHIMURIUM, Strain/Indicator: TA98, Metabolic Activation: HAMSTER, LIVER, S-9, AROCLOR 1254 (30%), Method: PREINCUBATION) is “inactive; negative”; the mutagenic call under setting [1] was “inactive; negative”; the mutagenic call (Test System: AMES SALMONELLA TYPHIMURIUM, Strain/Indicator: TA98, Metabolic Activation: RAT, LIVER, S-9, AROCLOR 1254 (10%), Method: PREINCUBATION) is “inactive; negative”; the mutagenic call (Test System: AMES SALMONELLA TYPHIMURIUM, Strain/Indicator: TA98, Metabolic Activation: RAT, LIVER, S-9, AROCLOR 1254 (30%), Method: PREINCUBATION) is “inactive; negative”; the mutagenic call (Test System: AMES SALMONELLA TYPHIMURIUM, Strain/Indicator: TA100, Metabolic Activation: HAMSTER, LIVER, S-9, AROCLOR 1254 (10%), Method: PREINCUBATION) is “inactive; negative”; the mutagenic call (Test System: AMES SALMONELLA TYPHIMURIUM, Strain/Indicator: TA100, Metabolic Activation: HAMSTER, LIVER, S-9, AROCLOR 1254 (30%), Method: PREINCUBATION) is “inactive; negative”. The mutagenic call under setting [2] was “inactive; negative”; the mutagenic call (Test System: AMES SALMONELLA TYPHIMURIUM, Strain/Indicator: TA100, Metabolic Activation: RAT, LIVER, S-9, AROCLOR 1254 (10%), Method: PREINCUBATION) was “inactive; negative”; the mutagenic call (Test System: AMES SALMONELLA TYPHIMURIUM, Strain/Indicator: TA100, Metabolic Activation: RAT, LIVER, S-9, AROCLOR 1254 (30%), Method: PREINCUBATION) is “inactive; negative”; the mutagenic call (Test System: AMES SALMONELLA TYPHIMURIUM, Strain/Indicator: TA1535, Metabolic Activation: HAMSTER, LIVER, S-9, AROCLOR 1254 (10%), Method: PREINCUBATION) is “inactive; negative”; the mutagenic call (Test System: AMES SALMONELLA TYPHIMURIUM, Strain/Indicator: TA1535, Metabolic Activation: HAMSTER, LIVER, S-9, AROCLOR 1254 (30%), Method: PREINCUBATION) was “inactive; negative”; the mutagenic call under setting [3] was “inactive; negative”. Also, the mutagenic call (Test System: AMES SALMONELLA TYPHIMURIUM, Strain/Indicator: TA1535, Metabolic Activation: RAT, LIVER, S-9, AROCLOR 1254 (10%), Method: PREINCUBATION) was “inactive; negative” and the mutagenic call (Test System: AMES SALMONELLA TYPHIMURIUM, Strain/Indicator: TA1535, Metabolic Activation: RAT, LIVER, S-9, AROCLOR 1254 (30%), Method: PREINCUBATION) is “inactive; negative”.

As to `CC(=O)CC1CCC(=O)CCC(=O)OC(CC(C)=O)CCC(O)CCC(=O)O1` (stereo unspecified), the mutagenic call (Test System: CHINESE HAMSTER V-79, Strain/Indicator: V-79 (HPRT)/6-THIOGUANINE, Metabolic Activation: NONE) is “inactive; negative”.
